Measured values: the NIST ThermoML archive (doi:10.1016/j.tca.2013.11.010)

What was measured:
[1] = for surface tension liquid-gas: Drop volume; for viscosity / speed of sound / mass density: 101.33 kPa; for viscosity / speed of sound / mass density / vapor or sublimation pressure: Liquid; for viscosity: Capillary tube (Ostwald / Ubbelohde) method; for speed of sound: Sing-around technique in a fixed-path interferometer; for mass density: Vibrating tube method; for vapor or sublimation pressure: Ebulliometric method (Recirculating still)
[2] = refractive index (Na D-line) (dimensionless); conditions: 101.33 kPa, Liquid, Standard Abbe refractometry
[3] = relative permittivity at various frequencies (dimensionless); conditions: 101.3 kPa, Liquid, Frequency=2 MHz, Parallel plate capacitor

CCCCOC(=O)C(C)O (centres undefined) [butyl 2-hydroxypropanoate]
Conditions | mass density, [1] [kg/m3] | refractive index, [2] | relative permittivity, [3] | speed of sound, [1] [m/s] | surface tension liquid-gas, [1] [mN/m] | vapor or sublimation pressure, [1] [kPa] | viscosity, [1] [mPa·s]
278.15 K | 996.896 | – | 11.488 | 1357.2 | 30.07 | – | 6.496
280.65 K | 994.466 | – | 11.323 | 1348.2 | 29.86 | – | 5.873
283.15 K | 992.023 | 1.42578 | 11.164 | 1339.1 | 29.65 | – | 5.333
285.65 K | 989.578 | 1.42472 | 11.046 | 1330.1 | 29.42 | – | 4.86
288.15 K | 987.126 | 1.4237 | 10.912 | 1321.2 | 29.14 | – | 4.446
290.65 K | 984.671 | 1.42259 | 10.769 | 1312.2 | 28.93 | – | 4.077
293.15 K | 982.212 | 1.4215 | 10.593 | 1303.2 | 28.72 | – | 3.753
295.65 K | 979.75 | 1.42038 | 10.428 | 1294.1 | 28.38 | – | 3.466
298.15 K | 977.283 | 1.41928 | 10.298 | 1285 | 28.15 | – | 3.207
300.65 K | 974.813 | 1.41815 | 10.158 | 1276 | 27.87 | – | 2.978
303.15 K | 972.337 | 1.41703 | 10.024 | 1266.9 | 27.64 | 0.102 | 2.773
305.65 K | 969.859 | 1.4159 | 9.87 | 1257.8 | 27.38 | – | 2.588
308.15 K | 967.374 | 1.41477 | 9.695 | 1248.8 | 27.16 | 0.149 | 2.423
310.65 K | 964.888 | 1.41366 | 9.583 | 1239.8 | 26.92 | – | 2.272
313.15 K | 962.397 | 1.41252 | 9.411 | 1230.8 | 26.68 | 0.201 | 2.134
315.65 K | 959.903 | 1.41139 | 9.273 | 1221.7 | 26.42 | – | 2.011
318.15 K | 957.407 | 1.41026 | 9.165 | 1212.8 | 26.1 | 0.273 | 1.897
320.65 K | 954.908 | 1.4091 | 9.002 | 1203.8 | 25.89 | – | 1.793
323.15 K | 952.408 | 1.40797 | 8.844 | 1194.9 | 25.7 | 0.371 | 1.695
325.65 K | 949.904 | 1.40682 | 8.699 | 1185.9 | 25.43 | – | 1.607
328.15 K | 947.397 | 1.40572 | 8.545 | 1177 | 25.14 | 0.511 | 1.526
330.65 K | 944.885 | 1.40441 | 8.418 | 1168 | 24.92 | – | 1.45
333.15 K | 942.369 | 1.40341 | 8.286 | 1159.1 | 24.67 | 0.679 | 1.379
335.65 K | 939.848 | 1.40226 | 8.164 | 1150.3 | 24.41 | – | 1.315
338.15 K | 937.324 | 1.40114 | 8.047 | 1141.5 | 24.16 | 0.899 | 1.257
343.15 K | – | – | – | – | – | 1.192 | –
348.15 K | – | – | – | – | – | 1.541 | –
353.15 K | – | – | – | – | – | 1.979 | –
358.15 K | – | – | – | – | – | 2.502 | –
363.15 K | – | – | – | – | – | 3.224 | –
368.15 K | – | – | – | – | – | 4.057 | –
373.15 K | – | – | – | – | – | 5.075 | –
378.15 K | – | – | – | – | – | 6.271 | –
383.15 K | – | – | – | – | – | 7.753 | –
388.15 K | – | – | – | – | – | 9.531 | –
393.15 K | – | – | – | – | – | 11.64 | –
398.15 K | – | – | – | – | – | 14.12 | –
403.15 K | – | – | – | – | – | 17 | –
408.15 K | – | – | – | – | – | 20.43 | –
413.15 K | – | – | – | – | – | 24.39 | –
418.15 K | – | – | – | – | – | 29.2 | –
423.15 K | – | – | – | – | – | 34.6 | –
428.15 K | – | – | – | – | – | 40.78 | –
433.15 K | – | – | – | – | – | 47.9 | –
438.15 K | – | – | – | – | – | 55.97 | –
443.15 K | – | – | – | – | – | 65.3 | –
448.15 K | – | – | – | – | – | 75.81 | –
453.15 K | – | – | – | – | – | 87.7 | –
